In patent publication EP0366451A2, “The use of oxidized polyamines, especially NN'-Bis-(3-propionaldehyde)-1-4-diaminobutane (sperminedialdehyde) as immunosuppressive agents” (ORTHO PHARMACEUTICAL CORPORATION, priority 1988, dated 1990):

Columns and labels:
[1] = test system: lethally irradiated AKR mice; assay: Bone marrow transplantation with ex vivo treated graft (GVHD, survival); format: in vivo
Experimental: C57BL spleen and bone marrow cell mixtures were treated with different concentrations of spermine dialdehyde or control preparation and injected i.v. into lethally irradiated AKR mice. A graph is depicted wherein percentage survival is scored as a function of time.
In bone marrow transplantation, bone marrow cells from normal donor mice were transplanted to totally histoincompatible and lethally irradiated recipients. All recipient mice received 9.5 Gy (950 rads) total body irradiation on day 0 and were then housed in microisolator cages thereafter. They were given autoclaved rodent laboratory chow throughout the whole study and also were allowed to feed ad libitum. Recipients also received 1.5 mg/kg of gentamicin subcutaneously for 20 days after irradiation. On the day of irradiation, bone marrow cells mixed in 3:1 ratio with spleen cells were removed from donors and incubated for an hour with different concentrations of spermine dialdehyde for 1 hour. Spleen cells were added to intensify subsequent graft vs. host disease (GVHD). After incubation, cells were washed 3 times and then injected intravenously into irradiated recipients. Signs of GVHD and survival were scored every day thereafter.
Bone marrow and spleen cell mixtures (3:1 ratio) from C57BL mice were incubated with control preparation or various concentrations of spermine dialdehyde for 1 hour Cells were then washed extensively and injected intravenously into lethally irradiated histoincompatible AKR mice. Signs of graft vs. host diseases such as hunched back, diarrhea, alopecia, and physical conditions were recorded daily. […] Thus treatment with lower doses of spermine dialdehyde inactivated T lymphocytes without being toxic to marrow celis and allowed animals to reconstitute with little sign of GVHD.

(Lewis x BN) F1 rats = assay: Graft vs. host reaction in rat (popliteal lymph node study); format: in vivo
Experimental: (LewXBN) rats were injected i.v. daily for 8 days with different doses of spermine dialdehyde. On day 2, BN rat spleen cells were injected subcutaneously into the left foot pads of the (LewxBN)F1 rats. These rats were sacrificed in 7 days and weights of both left and right popliteal lymph nodes were removed. The difference in weight is plotted as a function of spermine dialdehyde concentrations used.
Graft vs. host reaction in rats was measured by popliteal lymph node enlargement induced by reinjection of parental spleen cells into F1 recipients. (Lewis x BN) F1 rats were divided into groups of 10 and given daily IV injections of different doses of the test compound (spermine dialdehyde) or control preparation. Two days after the first injection, they received 9 x 10⁶ spleen cells from a parental Lewis strain (0.3 ml of a […] cell/ml preparation was injected under the skin of the ventral surface of each of the recipient's right hind foot). Injection of test compound and control article continued for 6 more days. On the seventh day, rats were sacrificed by CO₂ treatment. Both left and right politeal lymph nodes were removed and cleaned of any adhering tissue. The extent of enlargement was measured by weighing both left and right lymph nodes and differences between the two were calculated.
Graft vs. host reaction was generated in the form of popliteal lymph node in F1 recipients by subcutaneous injection of parental spleen cells. Spermine aldehyde was administered intravenously starting 2 days before parental spleen cell injection and continued until the day of lymph node measurement. Increase in popliteal lymph node swelling was scored by difference in weight between test (left) and control (right) lymph node. […] This GVH reaction is a typical manifestation of MHC class II reaction involving allogenic T lymphocytes.

C57BL mice = assay: In vivo generation of cytotoxic T cells in mice; settings: Figure 5
Experimental: C57BL mice were injected i.p. daily with different doses of spermine dialdehyde. On day 2, they also received 107 DBA spleen cells. Seven days later, animals were sacrificed and percentage of cytotoxic T cells (measured by % specific lipes generated in the spleen was calculated and plotted as a function of concentration of spermine dialdehyde.
In vivo generation of cytotoxic T cells was performed according to the method described by Faanes et al., Clin. Esp. Immunol., Vol. 27 pp. 502-506 (1977). C57BL mice were arranged into groups of 10 and injected IP with different doses of spermine dialdehyde or control preparation. Two days after first injection, they received i.p. injection of 10⁷ DBA spleen cells which were prepared as described previously. Ten days after cell injection, C57 mice were sacrificed by cervical dislocation and cytotoxic T cells generated in the spleen were quantified by measuring the ability of those cells to lyse 51Cr labelled PB15 target cells (a mastocytoma, cells of DBA origin or Con A stimulated DBA spleen blasts). P815 cells or blasts were suspended at 10⁷ cells/ml and incubated with 200 MCi of 51Cr for 1 hour at 37°C. […] After incubation, 100 Ml of supernatant was removed and counted in the gamma counter. The percentage of cytotoxic T cells was calculated: [formula] […]

B6D2F1 mice = assay: Delayed type hypersensitivity to SRBC, footpad swelling; format: in vivo
Experimental: Delayed type hypersensitivity was induced in the footpad of B6D2F1 mice and swelling measured in mm. Spermine dialdehyde was administered i.p. and i.m. at various timeperiods.
Delayed type hypersensitivity was induced in the footpad of B6D2F1 mice by using sheep red blood cells (SRBC) as the antigen. Briefly, 0.2 ml of 0.01% SRBC was injected i.v. into B6D2F1 mice. Four days later, they were challenged in the footpad with 50 µl of 20% SRBC. Swelling of the footpad was measured 24, 48, and 72 hours later. Spermine dialdehyde was administered i.p. initiating from the day before immunization. After challenge in the footpad, B6D2F1 mice were given an intramuscular (i.m.) injection beside the challenge site one hour after challenge. Some mice received no i.p. administration and were only given one i.m. injection after the challenge.

O=CCCNCCCCNCCC=O [SDA, NN′-Bis-(3-propionaldehyde)-1-4-diaminobutane]
signs of GVHD ([1]; bone marrow treated ex vivo for 1 hour): only mild signs of GVHD | survival time ([1]; marrow treated ex vivo with lower doses (0.03-0.06), Figure 3): significantly prolonged survival time | marrow toxicity ([1]; very high dose groups of 0.2mM, ex vivo treatment): exhibited marrow toxicity | ED (maximum) ((Lewis x BN) F1 rats; Rattus norvegicus, iv, Figure 4, read-out: dose required to achieve maximum suppression of GVH reaction in vivo): 5 mg/kg | minimal effective dose ((Lewis x BN) F1 rats; Rattus norvegicus, intravenously or subcutaneously, read-out: dose effective to suppress graft vs. host reactions): 5 to 10 mg/kg | GVH reaction (popliteal lymph node swelling) ((Lewis x BN) F1 rats; intravenous, daily, Figure 4): significantly suppressed the GVH reaction | ED (maximum) (C57BL mice; Mus musculus, T-cell, ip, read-out: dose that appeared to attain maximum suppression of cytotoxic T cell generation): 10 mg/kg | generation of cytotoxic T cells (C57BL mice; i.p.): suppressed the generation of cytotoxic T cells in a dose related manner | footpad swelling (B6D2F1 mice; given both systemically (i.p.) and locally (i.m.), 24 or 48 hours after challenge, Figure 7): reduced swelling | footpad swelling (B6D2F1 mice; given only after challenge, 24 hours later): swelling similar to that of mice receiving control vehicles | footpad swelling (B6D2F1 mice; given only after challenge, 48 hours later): reduced swelling compared to that of the control group
